Data from PMC4435632, “Phase 1 study of ixazomib, an investigational proteasome inhibitor, in advanced non-hematologic malignancies” (Investigational New Drugs, 2015).

Assays:
[1] = Ixazomib in tumor biopsies (LC/MS/MS); assay type: in vivo, human; conditions: TPEC, 1.76 mg/m^2; 10 evaluable patients
Experimental: Tumor biopsies were analyzed for the presence of ixazomib using a quantified LC/MS/MS methodology validated in xenograft models. Expression of ATF-3 was measured in the TPEC using an IHC staining assay developed and validated using preclinical and human primary tumor samples. For this assay, formalin-fixed, paraffin-embedded tumor biopsy samples were obtained pre- and post-treatment (at 4–24 h post-dosing on day 1 or day 4 of cycle 1). Six 5 μm sections from each tumor sample were then cut (10 μm apart) and stained with antibody to ATF-3 (Santa Cruz Biotechnology, Inc., sc-188, lot:K1908) on a Discovery XT autostainer (Ventana Medical Systems, Inc.). After staining, whole slides were scanned and analyzed to calculate the percentage ATF-3-positive area for each section using the Genie™ (Aperio® ePathology Solutions) pattern recognition tool. The ATF-3-positive area was measured within the tumor region using the Positive Pixel Count algorithm, and the percentage ATF-3-positive area/total tumor area was then calculated for each section.
Approximately 16 patients were planned to be enrolled to the TPEC to estimate ixazomib concentrations in tumors and target engagement as ATF-3 expression levels. […] This value was used to determine the minimum number of sections (n = 6) for pharmacodynamic analysis and the size of the fold change in ATF-3 that could be detected with 80 % power. […]

[2] = system: advanced non-hematologic malignancies; test: Disease response (RECIST 1.0 / modified PCWG2); assay type: in vivo, human
Excerpt: AEs were monitored throughout the study and were graded according to National Cancer Institute Common Terminology Criteria for Adverse Events (NCI-CTCAE) v3.0. Response assessments were undertaken by investigators using a consistent imaging modality in accordance with RECIST 1.0 [23] on days 18–21 of cycle 2 and subsequent cycles. For patients with prostate cancer, response and progressive disease were based on RECIST for measurable neoplastic disease or on measurement of serum PSA per modified PCWG2 criteria in the absence of measurable sites.
The safety population included all patients who received ≥1 dose of ixazomib, and the DLT-evaluable population, which was used for determination of the MTD, comprised patients who received all cycle 1 doses of ixazomib or experienced a DLT in cycle 1. […] The response-evaluable population included all patients who received ≥1 dose of ixazomib, had measurable disease at baseline, and had ≥1 post-baseline disease assessment. Approximately 16 response-evaluable patients were planned to be evaluated in each MTD expansion cohort.

[3] = biological target: chymotrypsin-like activity of the β5 subunit of the 20S proteasome (Homo sapiens, UniProt P28074); test: Whole blood 20S proteasome activity, fluorogenic assay; assay type: in vivo
Experimental: Blood samples for determination of plasma ixazomib concentrations for pharmacokinetic analysis (3 mL) and for measurement of whole blood 20S proteasome activity (1 mL) were collected at the following timepoints for all patients in the dose-escalation cohort and for the first 12 patients completing cycle 1 while receiving protocol-specified treatment at the MTD: pre-dose (within 1 h) on days 1, 4, 8, and 11 of cycle 1, and on day 1 of cycle 2; and on days 1 and 11, cycle 1, at 5, 15 and 30 min, and 1, 2, 4, 9, 24, 48, 96 (day 11 only), 120 (day 11 only), and 168 (day 11 only) h post-dose. A limited sampling schedule was employed for the remaining patients in the MTD expansion cohorts.
Plasma concentrations of ixazomib were measured using a good laboratory practice-validated liquid chromatography/tandem mass spectrometry (LC/MS/MS) assay with a lower limit of quantification of 0.5 ng/mL. Whole blood 20S proteasome activity (expressed as percent proteasome inhibition relative to baseline) was measured using an established fluorogenic assay, which evaluates the chymotrypsin-like activity of the β5 subunit of the 20S proteasome, the primary target of ixazomib. […]
All efficacy and safety data were summarized using descriptive statistics. Pharmacokinetic and pharmacodynamic parameters were calculated using noncompartmental methods (WinNonlin software v5.3).

CC(C)C[C@H](NC(=O)CNC(=O)c1cc(Cl)ccc1Cl)B(O)O [ixazomib]
Ixazomib in post-dose tumor biopsies [1]: present in all 10 post-dose biopsies analyzed
Patients with stable disease ([2]; 92 response-evaluable patients): 30 patients
Patients with stable disease lasting for ≥4 cycles ([2]; 92 response-evaluable patients): eight
Patients with partial response ([2]; 92 response-evaluable patients, head and neck cancer, MTD 1.76 mg/m^2): one
Reduction in tumor diameter ([2]; one patient with kidney malignancy, progressive disease at end of study): 14%
Reduction in tumor diameter ([2]; other patient with kidney malignancy, discontinued due to grade 3 acute renal failure): 22%
Total duration of partial response ([2]; patient with head and neck cancer, achieved after 4 cycles, maintained for 8 cycles): 6.7 months
Time to Emax, whole blood 20S proteasome ([3]; day 1, 0.125 mg/m^2 IV, n = 1): 1.0 h
Emax, whole blood 20S proteasome ([3]; day 1, 0.125 mg/m^2 IV, n = 1, individual value): 7.7 % inhibition
Time to Emax, whole blood 20S proteasome ([3]; day 1, 0.25 mg/m^2 IV, n = 1): 0.10 h
Emax, whole blood 20S proteasome ([3]; day 1, 0.25 mg/m^2 IV, n = 1, individual value): 17.9 % inhibition
Time to Emax, whole blood 20S proteasome ([3]; day 1, 0.5 mg/m^2 IV, n = 1): 0.25 h
Emax, whole blood 20S proteasome ([3]; day 1, 0.5 mg/m^2 IV, n = 1, individual value): 28.2 % inhibition
Emax, whole blood 20S proteasome ([3]; day 1, 1 mg/m^2 IV, n = 7, mean (± SD)): 36.9 (±19.4) % inhibition
Time to Emax, whole blood 20S proteasome ([3]; day 1, 1 mg/m^2 IV, n = 7, median (range)): 0.10 (0.08–0.10) h
Emax, whole blood 20S proteasome ([3]; day 1, 1.33 mg/m^2 IV, n = 4, mean (± SD)): 46.7 (±9.4) % inhibition
Time to Emax, whole blood 20S proteasome ([3]; day 1, 1.33 mg/m^2 IV, n = 4, median (range)): 0.25 (0.1–0.25) h
Emax, whole blood 20S proteasome ([3]; day 1, 1.76 mg/m^2 IV, n = 19, mean (± SD)): 61.3 (±7.9) % inhibition
Time to Emax, whole blood 20S proteasome ([3]; day 1, 1.76 mg/m^2 IV, n = 19, median (range)): 0.10 (0.067–0.267) h
Emax, whole blood 20S proteasome ([3]; day 1, 2.34 mg/m^2 IV, n = 3, mean (± SD)): 64.4 (±3.4) % inhibition
Time to Emax, whole blood 20S proteasome ([3]; day 11, 0.125 mg/m^2 IV, n = 1): 24.0 h
Emax, whole blood 20S proteasome ([3]; day 11, 0.125 mg/m^2 IV, n = 1, individual value): 4.5 % inhibition
Time to Emax, whole blood 20S proteasome ([3]; day 11, 0.25 mg/m^2 IV, n = 1): 0.083 h
Emax, whole blood 20S proteasome ([3]; day 11, 0.25 mg/m^2 IV, n = 1, individual value): 10.0 % inhibition
Time to Emax, whole blood 20S proteasome ([3]; day 11, 0.5 mg/m^2 IV, n = 1): 0.1 h
Emax, whole blood 20S proteasome ([3]; day 11, 0.5 mg/m^2 IV, n = 1, individual value): 46.1 % inhibition
Emax, whole blood 20S proteasome ([3]; day 11, 1 mg/m^2 IV, n = 6, mean (± SD)): 38.9 (±8.35) % inhibition
Time to Emax, whole blood 20S proteasome ([3]; day 11, 1 mg/m^2 IV, n = 6, median (range)): 0.1 (0.0–0.117) h
Emax, whole blood 20S proteasome ([3]; day 11, 1.33 mg/m^2 IV, n = 3, mean (± SD)): 54.3 (±4.1) % inhibition
Time to Emax, whole blood 20S proteasome ([3]; day 11, 1.33 mg/m^2 IV, n = 3, median (range)): 0.083 (0.083–0.1) h
Emax, whole blood 20S proteasome ([3]; day 11, 1.76 mg/m^2 IV, n = 15, mean (± SD)): 62.5 (±7.71) % inhibition
Time to Emax, whole blood 20S proteasome ([3]; day 11, 1.76 mg/m^2 IV, n = 15, median (range)): 0.10 (0.083–0.283) h
Emax, whole blood 20S proteasome ([3]; day 11, 2.34 mg/m^2 IV, n = 3, mean (± SD)): 72.5 (±4.71) % inhibition
Time to Emax, whole blood 20S proteasome ([3]; day 11, 2.34 mg/m^2 IV, n = 3, median (range)): 0.10 (0.083-0.133) h
inhibition at 1.76 mg/m2 ([3]; read-out: Average maximal inhibition of 20S proteasome activity in whole blood): 60%
Recovery of 20S proteasome activity to predose levels ([3]; single-dose administration on day 1, except dose level greater than the MTD): ≤ 24 h
